Results published in patent US20050267133A1, “Pyrazolopyrimidines as kinase inhibitors” (priority 2002, published 2005).

Key:
GSK-3β = GSK-3β (Homo sapiens, UniProt P49841); experiment: GSK3 scintillation proximity assay (SPA) kinase assay; type: biochemical; conditions: 20 nM kinase, 2.5 uM ATP, biotinylated glycogen synthase peptide, 40 minutes at room temperature; -log IC50 in Molar; read-out: GSK-3 pIC50 (converted)
Text: The phosphorylated biotinylated peptide is then captured onto streptavidin coated scintillation proximity assay (SPA) beads from Amersham Technology, where the signal from the ^33P is amplified via the scintillant contained in the beads.
GSK-3β is commercially available or may be cloned and expressed in E. coli using standard techniques to produce soluble, active protein. The production of active protein involves purification in two steps using Metal Chelate and Ion Exchange Chromatography. Protein eluting from Ion Exchange provides >90% pure product that may then be concentrated for use in high throughput screening.
The kinase was assayed at a concentration of 20 nM final in 100 mM HEPES, pH 7.2 containing 10 mM magnesium chloride, 0.1 mg/mL bovine serum albumin, 1 mM dithiothreitol, 0.3 mg/mL heparin, 2.8 uM peptide substrate, 2.5 uM ATP, and 0.2 uCi/well [[…]-^33P]-ATP. After 40 minutes incubation at room temperature, the reaction was stopped by addition of 100 mM EDTA and […] in 100 mM HEPES, pH7.2 followed by an additional solution of diluted Streptavidin coated SPA beads in PBS, pH 7.2 to give a final concentration of 0.25 mg of beads per assay well in a 96-well microtiter plate.
10 mM stock solutions of the compounds of the invention in 100% DMSO are generated as a first step in the screening process. The second step involves the creation of dose response plates where these compounds are diluted 10-fold in 100% DMSO to 1 mM concentrations and subsequently serially diluted 3-fold in 100% DMSO across the plate by automated liquid handling such that the final top concentration of inhibitor is 0.033 mM in the 30 uL kinase assay. The third step involves the creation of the assay plates. This is achieved by transferring 1 uL of the compounds to assay plates by automated liquid handling. The fourth step is to perform the assay as described and count the resulting plates in the Packard TopCount NXT microplate scintillation and luminescence counter.
The final step is data acquisition and analysis where IC50 values are generated for each compound by normalizing curve data to the equation 100*(U1−C2)/(C1−C2) (where U1 is the cpm value, C2 is the background, and C1 is the maximum number of counts), then fitting the normalized data to the equation y=Vmax*(1−(x/(K+x))). The IC50 values were converted to pIC50 values, i.e., −log IC50 in Molar concentration. The data is expressed below in Table 1.

[1] = biological target: T1, GST-TIE2 (intracellular domains of human TIE2) (Homo sapiens, UniProt Q02763); experiment: TIE-2 Enzyme Assay (TIE2-E), LANCE method; type: biochemical; conditions: preactivated GST-TIE2, 1 μM D1-15 peptide, 80 uM ATP, 30 mins at room temperature; pIC50 = -log IC50 in Molar
T1 construct: made in house
T1 sequence (Q02763 762-1104): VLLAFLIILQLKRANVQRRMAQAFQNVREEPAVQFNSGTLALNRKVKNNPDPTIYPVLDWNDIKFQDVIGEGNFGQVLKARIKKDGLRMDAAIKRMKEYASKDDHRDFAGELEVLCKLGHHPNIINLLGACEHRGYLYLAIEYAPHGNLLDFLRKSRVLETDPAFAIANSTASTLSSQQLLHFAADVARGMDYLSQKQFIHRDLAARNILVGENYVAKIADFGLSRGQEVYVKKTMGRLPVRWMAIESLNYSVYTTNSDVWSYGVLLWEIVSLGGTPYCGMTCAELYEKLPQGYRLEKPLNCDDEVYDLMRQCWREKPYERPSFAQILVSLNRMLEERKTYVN
Text: The TIE-2 enzyme assay used the LANCE method (Wallac) and GST-TIE2, baculovirus expressed recombinant constructs of the intracellular domains of human TIE2 (amino acids 762-1104, GenBank Accession # L06139) tagged by GST). The method measured the ability of the purified enzymes to catalyse the transfer of the γ-phosphate from ATP onto tyrosine residues in a biotinylated synthetic peptide, D1-15 (biotin-C6-LEARLVAYEGWVAGKKKamide). This peptide phosphorylation was detected using the following procedure: for enzyme preactivation, GST-TIE2 was incubated for 30 mins at room temperature with 2 mM ATP, 5 mM MgCl2 and 12.5 mM DTT in 22.5 mM HEPES buffer (pH7.4). Preactivated GST-TIE2 was incubated for 30 mins at room temperature in 96 well plates with 1 μM D1-15 peptide, 80 uM ATP, 10 mM MgCl2, 0.1 mg/ml BSA and the test compound (diluted from a 10 mM stock in DMSO, final DMSO concentration was 2.4%) in 1 mM HEPES (pH7.4). The reaction was stopped by the addition of EDTA (final concentration 45 mM). Streptavidin linked-APC (allophycocyanin, Molecular Probe) and Europium-labeled anti-phosphorylated tyrosine antibody (Wallac) were then added at the final concentration of 17 μg/well and 2.1 μg/well, respectively. The APC signal was measured using an ARVO multilabel counter. (Wallac Berthold Japan). The percent inhibition of activity was calculated relative to blank control wells.
The concentration of test compound that inhibits 50% of activity (IC50) was interpolated using nonlinear regression (Levernberg-Marquardt) and the equation, y=Vmax (1−x/(K+x))+Y2, where “K” was equal to the IC50. The IC50 values were converted to pIC50 values, i.e., −log IC50 in Molar concentration.
Test compounds are employed in free or salt form.

GSK-3β, sequence (P49841 whole entry, species assumed): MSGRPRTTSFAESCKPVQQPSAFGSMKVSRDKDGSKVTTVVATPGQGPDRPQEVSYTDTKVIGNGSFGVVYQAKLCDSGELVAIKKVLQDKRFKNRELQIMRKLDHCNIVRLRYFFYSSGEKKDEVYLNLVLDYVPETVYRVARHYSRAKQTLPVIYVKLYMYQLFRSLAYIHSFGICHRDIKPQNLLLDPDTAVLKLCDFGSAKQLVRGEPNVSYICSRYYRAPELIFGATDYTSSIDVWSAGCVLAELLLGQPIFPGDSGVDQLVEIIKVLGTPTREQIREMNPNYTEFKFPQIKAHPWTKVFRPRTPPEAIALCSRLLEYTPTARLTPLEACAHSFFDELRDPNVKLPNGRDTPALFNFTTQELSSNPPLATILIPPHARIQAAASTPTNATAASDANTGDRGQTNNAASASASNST

Compound | IC50 (GSK-3β) [nM] | IC50 [1] [nM]
NCCNC(=O)c1ccc(/C=N/Nc2ncnc3c2cnn3-c2ccccc2)cc1 [Example 31, N-(2-Aminoethyl)-4-{(E)-[(1-phenyl-1H-pyrazolo[3,4-d]pyrimidin-4-yl)hydrazono]methyl}benzamide] | 100 to 1000 | 1000 to 10000
CC(=O)Nc1ccc(/C=N/Nc2ncnc3c2cnn3-c2ccccc2)cc1 [Example 52, 4-Acetamidobenzaldehyde [1-(phenyl)-1H-pyrazolo[3,4-d]pyrimidin-4-yl]hydrazone] | 100 to 1000 | 100 to 1000
Oc1cccc(/C=N/Nc2ncnc3c2cnn3-c2ccccc2)c1 [Example 6, 3-Hydroxybenzaldehyde (1-phenyl-1H-pyrazolo[3,4-d]pyrimidin-4-yl)hydrazone] | 100 to 1000 | 1000 to 10000
CCN(CC)CCOc1ccc(/C=N/Nc2ncnc3c2cnn3-c2ccccc2)cc1 [Example 60, 4-(2-(Diethylamino)-ethoxy)-benzaldehyde [1-(phenyl)-1H-pyrazolo[3,4-d]pyrimidin-4-yl]hydrazone] | 100 to 1000 | 100 to 1000
COc1ccc(/C=N/Nc2ncnc3c2cnn3-c2ccccc2)cc1O [Example 45, 3-Hydroxy-4-methoxybenzaldehyde (1-phenyl-1H-pyrazolo[3,4-d]pyrimidin-4-yl)hydrazone] | 100 to 1000 | 100 to 1000
COc1cc(/C=N/Nc2ncnc3c2cnn3-c2ccccc2)cc(C(=O)O)c1O [Example 47, 3-Carboxy-4-Hydroxy-5-methoxybenzaldehyde (1-phenyl-1H-pyrazolo[3,4-d]pyrimidin-4-yl)hydrazone] | 100 to 1000 | 1000 to 10000
NS(=O)(=O)c1ccc(/C=N/Nc2ncnc3c2cnn3-c2ccccc2)cc1 [Example 20, 4-{(E)-[(1-phenyl-1H-pyrazolo[3,4-d]pyrimidin-4-yl)hydrazonol]methyl}benzenesulfonamide] | < 100 | 100 to 1000
